# Measurements published in patent publication US20110028517A1 (LABORATORIOS DEL DR. ESTEVE, S.A., priority 2008, published 2011).
# How the values were obtained:
# Human CB1 receptor [1] = target: T1, Human CB1 receptor (Homo sapiens, UniProt P21554); assay: In-vitro determination of functional activity to human CB1-receptors ([35S]GTPγS binding in presence of Win 55,212-2, CHO-CB1 membranes); format: biochemical; parameters: expressed in transfected cells; host or cells: CHO cells, stably transfected, membranes; settings: for functional behaviour at CB1 receptor (inverse agonist or neutral antagonist): [35S]GTPγS binding relative to basal levels, FIG. 1
# Experimental: The binding of [^35S]GTPγS was carried out using a modification of previously published methods Meschler, J. P., Kraichely, D. M., Wilken, G. M AND Howlet, A. C. […] Eur. J. Pharm. Sci. 2004, 23 (3): 233-43.
# Human CB1 membranes were prepared from stably transfected CHO cells. Incubation mixtures consisted of CHO-CB1 membrane preparation at a final concentration of 15 μg of protein, compound (dose-response curve between 3 nM and 3 μM, final well concentration), Win 55,212-2 (0.3 μM final well concentration) and binding buffer (50 mM HEPES, pH 7.4, 100 mM KCl, 5 mM MgCl2, 1 mM EDTA, 0.1% wt/vol bovine serum albumin, 5 μM GDP, saponin 10 μg/ml). Subsequently [^35S]GTPγS (0.25 nM) was added, samples were incubated for 60 minutes at 30° C. and finally filtered. Radioactivity on filters was measured with Wallac Microbeta Trilux. Data analysis was performed by using Graph Pad Prism version 3.03 for windows. The bottom plateau of the analyzed sigmoid curves is considered the Emin (Minimal efficacy) value and values of Emin<0 represents inverse agonism of the compounds.
# [2] = target: T2, cannabinoid CB1 receptors present in the central nervous system (Rattus norvegicus, UniProt P20272); assay: Prevention of hypothermia produced by CP55,940 in rat; format: in vivo; settings: CP55,940 0.3 mg/kg ip, FIG. 4
# T2 construct: from tissue; host or cells: live Wistar rat, central nervous system
# Experimental: Male Wistar rats (220-270 g) were used. Rats were fed ad libitum with pellet standard rodent chow. Animals were maintained on a 12/12 hour light-dark cycle. They were randomized into groups for compound and vehicle dosing. Animals were first dosed, p.o., with vehicle (saline +1 drop of tween) or with the (4S,5S)-5-(4-chlorophenyl)-1-(2,4-dichlorophenyl)-N-(cis-2,6-dimethylpiperidin-1-yl)-4-methyl-4,5-dihydro-1H-pyrazole-3-carboxamide enantiomer (10 or 30 mg/kg) 60 minutes prior to the second administration, i.p., with vehicle or CP 55,940 (0.3 mg/kg). Body temperature was measured using a rectal probe connected to a thermometer (CIBERTEC). Measurements were performed at T=−60, 0, 60, 120 and 240 minutes following CP55,940 administration. CP,55,940 was administered just after the measurement of Body temperature at T=0.
# Data were analyzed by a two-way (treatment, time) analysis of variance (ANOVA) with repeated measure on the time factor. A covariate was included to adjust for differences between treatment groups at baseline (Time 0). Comparisons between average treatment profiles were performed by defining appropriate tests for contrasts within the ANOVA analysis. A value of P<0.05 was considered significant. Data analysis was carried out with the SAS/STAT® release 9.1 statistical package (SAS Institute Inc., Cary, N.C.).
# Human CB1 receptor [3] = target: T1, Human CB1 receptor; assay: In-vitro determination of affinity to human CB1-receptors ([3H] (+)-CP55,940 radioligand binding, HEK-293 membranes); parameters: expressed in transfected cells; settings: [3H] (+)-CP55,940 0.45 nM
# Experimental: Binding affinity for CB1 receptor was evaluated according to a modification of the Govaerts S J, Hermans E and Lambert D M. “Comparison of cannabinoid ligand affinities and efficacies in murine tissues and in transfected cells expressing human recombinant cannabinoid receptors”. Eur. J. Pharm. Sci. 2004, 23 (3): 233-43 described method. Human CB1 receptor was transfected into HEK-293 cells and a stable clone obtained and membranes prepared from this clone was used as the membrane source for radioligand binding studies. [3H] (+)-CP55,940 was used as radioligand at a final concentration of 0.45 nM. The incubation buffer was Tris-HCl 50 mM, MgCl2 5 mM, EDTA 1 mM, BSA 0.5%, pH 7.4 and the non-specific binding was determined with 10 μM of HU210. Samples were incubated at 37° C. for 60 min before filtration. Radioactivity on filters was measured with Wallac Winspectral 1414 counter by liquid scintillation in Ecoscint H (National Diagnostics, U.K.).
# [4] = target: T3, CB1 receptors present in the CNS (Mus musculus, UniProt P47746); assay: Reversion of the analgesic effect of CP-55,940 in tail flick test in mice; format: in vivo; settings: for reversion of the analgesic effect of CP-55,940: CP-55,940 0.3 mg/kg subcutaneous, FIG. 5
# T3 construct: from tissue; host or cells: live CD1 mouse, central nervous system
# Experimental: (§1) Male CD1 mice (Charles River Laboratories), weighting 30 to 40 g (7-8 weeks old) and Male Wistar rats (Charles River Laboratories), weighting 260-300 g (7-8 weeks old) at the time of experiment, were housed in a controlled environment. Temperature was maintained at 22±2° C. on a 12-h light/dark cycle (On at 07:00 h and Off at 19:00 h) and food and water were available ad libitum. The experiments were performed during the light phase. The number of mice ranged from 4 to 15 per group in each individual experiment. Animals were always handled in accordance with ethical principles for the evaluation of pain in conscious animals (Zimmerman, 1983) and with the European Communities Council Directive of 24 November 1986 (86/609/ECC), and received approval by the local Ethical Committee.
# CP-55,940 (Ref. 0949, Tocris; Wiley et al., 1995) was administrated by subcutaneous route at 0.3 mg/kg in a volume of 5 ml/kg in mice and by intraperitoneal route at 0.5 mg/kg in a volume of 2 ml/kg in rat. NESS-0327 (Ruiu et al., 2003) was administrated by intraperitoneal route at 0.3 mg/kg and 1 mg/kg in a volume of 10 ml/kg in mice. […] All compounds were dissolved using HPMC (Hydroxypropyl methyl cellulose) which was prepared at a concentration of 0.5% in Milli-Q water.
# The tail flick test was used to evaluate the antinociceptive effect of compounds. The test was performed as previously described (Moncada et al., 2003 and Robles et al., 1996). A noxious beam of light was focused on the mice tail about 4 cm from its tip, and the tail flick latency was recorded automatically to the nearest 0.1 s. The intensity of the radiant heat source was adjusted to produce latencies between 3-5 sec in vehicle treated mice and 2-4 sec in vehicle treated rats. In order to minimize cutaneous injuries a cut-off time of 10 s was used.
# Mice were tested 60 min after subcutaneous administration of CP-55,940 (0.3 mg/kg) or vehicle (HPMC 0.5%).
# Data are presented as tail flick latency responses in sec ±S.E.M and as percentage of analgesia ±S.E.M. The values in the control group were compared against those obtained in the treated groups. Statistical analysis to test intergroup comparisons was made using an initial one-way analysis of variant followed by the Newman-Keuls multiple comparison test. The level of significance was set at p<0.05.
# [5] = target: T4, CB1 receptors present in the CNS (Rattus norvegicus, UniProt P20272); assay: Reversion of the analgesic effect of CP-55,940 in tail flick test in rat; format: in vivo; settings: 10 mg/kg oral
# T4 construct: from tissue; host or cells: live Wistar rat, central nervous system
# Experimental: as §1
# CP-55,940 (Ref. 0949, Tocris; Wiley et al., 1995) was administrated by subcutaneous route at 0.3 mg/kg in a volume of 5 ml/kg in mice and by intraperitoneal route at 0.5 mg/kg in a volume of 2 ml/kg in rat. NESS-0327 (Ruiu et al., 2003) was administrated by intraperitoneal route at 0.3 mg/kg and 1 mg/kg in a volume of 10 ml/kg in mice. […]
# The tail flick test was used to evaluate the antinociceptive effect of compounds. […] A noxious beam of light was focused on the mice tail about 4 cm from its tip, and the tail flick latency was recorded automatically to the nearest 0.1 s. […]
# [6] = Selectivity for 170 targets
# T1 sequence (P21554 whole entry): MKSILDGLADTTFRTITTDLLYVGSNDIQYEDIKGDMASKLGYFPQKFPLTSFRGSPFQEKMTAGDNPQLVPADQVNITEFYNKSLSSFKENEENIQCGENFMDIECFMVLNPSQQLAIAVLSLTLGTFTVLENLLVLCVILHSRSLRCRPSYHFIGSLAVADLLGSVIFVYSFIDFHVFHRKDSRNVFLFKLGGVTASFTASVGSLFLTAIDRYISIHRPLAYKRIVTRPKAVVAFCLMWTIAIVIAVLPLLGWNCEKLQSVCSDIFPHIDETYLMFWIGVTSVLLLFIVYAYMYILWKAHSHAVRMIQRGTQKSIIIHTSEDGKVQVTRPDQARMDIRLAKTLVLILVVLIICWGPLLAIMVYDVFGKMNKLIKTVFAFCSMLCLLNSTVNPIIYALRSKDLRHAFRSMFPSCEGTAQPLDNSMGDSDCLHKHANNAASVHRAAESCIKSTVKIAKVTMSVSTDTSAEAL
# T3 sequence (P47746 whole entry): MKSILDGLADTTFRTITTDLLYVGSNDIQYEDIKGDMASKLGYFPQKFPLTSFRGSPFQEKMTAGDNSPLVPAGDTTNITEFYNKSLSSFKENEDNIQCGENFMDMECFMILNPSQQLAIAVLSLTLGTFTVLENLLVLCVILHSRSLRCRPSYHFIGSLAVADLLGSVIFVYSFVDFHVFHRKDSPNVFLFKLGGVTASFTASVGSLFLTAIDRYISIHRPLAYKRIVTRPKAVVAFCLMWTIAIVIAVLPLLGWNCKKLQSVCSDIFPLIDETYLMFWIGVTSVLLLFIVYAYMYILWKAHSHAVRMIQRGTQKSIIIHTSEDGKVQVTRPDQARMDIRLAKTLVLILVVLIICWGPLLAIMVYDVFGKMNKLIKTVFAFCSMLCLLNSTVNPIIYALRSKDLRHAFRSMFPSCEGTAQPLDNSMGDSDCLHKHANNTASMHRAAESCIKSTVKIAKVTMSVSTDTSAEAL
# T4 sequence (P20272 whole entry): as the sequence (P47746 whole entry) above, with D95E counted along it
# T2 sequence (P20272 whole entry): as the sequence (P47746 whole entry) above, with D95E counted along it
SMILES,functional behaviour at CB1 receptor (inverse agonist or neutral antagonist) (Human CB1 receptor [1]),functional behaviour at CB1 receptor (inverse agonist or neutral antagonist) (Human CB1 receptor [1]; listed as racemate compound),"prevention of the hypothermia produced by CP55,940 ([2]; 10 mg/Kg p.o.)","prevention of the hypothermia produced by CP55,940 ([2]; 30 mg/Kg p.o.)",Ki (Human CB1 receptor [3]) [nM],"functional behaviour at CB1 receptor (inverse agonist or neutral antagonist) (Human CB1 receptor [1]; listed as (4S,5S) compound)","Emin (Minimal efficacy) (Human CB1 receptor [1]; [35S]GTPγS binding, Win 55,212-2 0.3 μM, Emin<0 represents inverse agonism)","IC50 (Human CB1 receptor [1]; [35S]GTPγS binding, Win 55,212-2 0.3 μM, read-out: pIC50 (potency) (converted)) [nM]","effect by itself in tail flick test ([4]; 5 mg/kg intraperitoneal, without CP-55,940)","effect by itself in tail flick test ([4]; 5 mg/kg intraperitoneal, without CP-55,940, listed as (4S,5S)-enantiomer)","effect by itself in tail flick test ([5]; without CP-55,940)","effect by itself in tail flick test ([5]; without CP-55,940, listed as (4S,5S)-enantiomer)",selective for 170 targets [6] [%],"reversion of the analgesic effect of CP-55,940 ([4]; 0.3 mg/kg intraperitoneal)","effect by itself in tail flick test ([4]; 0.3 mg/kg intraperitoneal, without CP-55,940)","reversion of the analgesic effect of CP-55,940 ([4]; 1 mg/kg intraperitoneal)","effect by itself in tail flick test ([4]; 1 mg/kg intraperitoneal, without CP-55,940)"
"CC1CCCC(C)N1NC(=O)C1=NN(c2ccc(Cl)cc2Cl)[C@H](c2ccc(Cl)cc2)[C@@H]1C (mixture of isomers) [racemate cis-compound, cis-5-(4-chlorophenyl)-1-(2,4-dichlorophenyl)-N-(2,6-dimethylpiperidin-1-yl)-4-methyl-4,5-dihydro-1H-pyrazole-3-carboxamide, reference compound]",behave as inverse agonists,CB1 inverse agonism,–,–,–,–,–,–,–,–,–,–,–,–,–,–,–
"C[C@@H]1C(C(=O)NN2[C@H](C)CCC[C@@H]2C)=NN(c2ccc(Cl)cc2Cl)[C@@H]1c1ccc(Cl)cc1 [(4S,5S)-5-(4-chlorophenyl)-1-(2,4-dichlorophenyl)-N-(cis-2,6-dimethylpiperidin-1-yl)-4-methyl-4,5-dihydro-1H-pyrazole-3-carboxamide]",neutral antagonist,–,does not significantly prevent,does not significantly prevent,27 ± 10,behaves as a neutral antagonist,−1±8,30.2,"Neither Rimonabant (5 mg/kg) nor the (4S,5S)-5-(4-chlorophenyl)-1-(2,4-dichlorophenyl)-N-(cis-2,6-dimethylpiperidin-1-yl)-4-methyl-4,5-dihydro-1H-pyrazole-3-carboxamide enantiomer (5 mg/kg) showed an effect by themselves","Neither Rimonabant (5 mg/kg) nor the(4S,5S)-enantiomer (5 mg/kg) showed an effect by themselves","Neither Rimonabant (10 mg/kg) nor the ((4S,5S)-5-(4-chlorophenyl)-1-(2,4-dichlorophenyl)-N-(cis-2,6-dimethylpiperidin-1-yl)-4-methyl-4,5-dihydro-1H-pyrazole-3-carboxamide enantiomer (10 mg/kg) showed an effect by themselves","Neither Rimonabant (10 mg/kg) nor (4S,5S)-enantiomer (10 mg/kg) showed an effect by themselves",99,–,–,–,–
O=C(NN1CCCCC1)c1nn(-c2ccc(Cl)cc2Cl)c2c1CCCc1cc(Cl)ccc1-2 [NESS-0327],–,–,–,–,–,–,–,–,–,–,–,–,–,not at 0.3 mg/kg,Neither NESS-0327 (0.3 mg/kg) nor (1 mg/kg) showed an effect by themselves,significantly inhibited,Neither NESS-0327 (0.3 mg/kg) nor (1 mg/kg) showed an effect by themselves
